From patent US6603046B1, “Bis-aromatic a,β-unsaturated ketones” (Lica Pharmaceuticals A/S, priority 1992, dated 2003)
≈ marks a conversion by molar mass, not a printed value. Like-named read-outs stand apart in the source and are kept apart here.

What was measured:
L. major amastigotes = L. major amastigotes in human macrophages, Giemsa counting (Example 6); type: cell-based, Leishmania major
Description: Macrophage culture. The method used in this study was a modification of the one described by Berman et al. (1979). Human peripheral blood monocytes were obtained by Ficoll-Hypaque fractionation of blood from the Blood Bank, Rigshospitalet, Copenhagen, Denmark. Washed cells were suspended in medium RPMI-199 containing penicillin (50 U/ml), and streptomycin (50 μg/ml), 25 mM Hepes, 4 mM L-glutamine, and 10% heat inactivated fetal calf serum (56° C., 30 min). One milliliter of suspension containing 1×10^6 mononuclear cells was added to each well (16 mm in diameter, with one piece of cover glass in 12 mm diameter) of 24 wells of plastic culture trays (Nunc, Denmark). After 4 h and again after 3 days of incubation at 37° C. in 5% CO2-95% air, old medium was removed and washed with warm fresh medium three times, and then replaced with warm fresh medium.
Infection of macrophages with L. major promastigotes. After 6 days incubation the old medium was removed, and one milliliter of 1×10^7 4 days culture of L. major promastigotes (same promastigotes culture as in Example 4) was added to each well. After 24 h infection, macrophage cultures were washed three times with warm fresh medium and replenished with warm fresh medium with different concentrations of licochalcone A or medium alone. The medium was changed every 3 days. After infection, day 3 and day 6 a certain number of macrophage cultures were fixed with absolute methanol, stained with 5% Giemsa stain for 10 min, and examined by light microscopy (×1,000). The percentage of macrophages that contained amastigotes and the number of amastigotes present per infected macrophage were determined in replicate cultures by counting 200 cells per well.

[1] = tested on: L. major in human PBM-derived macrophages; assay: L. major in human PBM-derived macrophages, microscopic counting (Example 7); type: cell-based, Leishmania major
[2] = tested on: human lymphocytes, neutrophils, and monocytes; assay: Trypan blue dye exclusion method; type: cell-based; conditions: 20 μg/ml
Description: Trypan blue dye exclusion method. This is a standard method used to determine cell viability. The assay is performed by incubating a given cell suspension with trypan blue for various periods of time after which the cells are examined under microscope. Dead cells will take up the dye and therefore show a blue colour. Percent viability is determined by counting at least a total of 200 cells.

P. falciparum = P. falciparum growth in vitro (Table 14.1, strain not stated); type: cell-based; conditions: Plasmodium falciparum, read-out: inhibition of malaria parasites (middle figure) (converted)
Outline: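 Parasitized erythrocytes (~1% parasitemia) in RPMI with graded compound concentrations, cultured 48 h. 3H-hypoxanthine added for the final 24 h. Growth measured as 3H-hypoxanthine incorporation into parasite DNA by liquid scintillation.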

[3] = tested on: Staphylococcus aureus ATCC 25923; assay: MIC on control strain, aerobic and microaerophilic (Example 18); type: cell-based; conditions: ATCC25923, 2 h, 2 hours incubation
Description: Staphylococcus aureus ATCC 25923 was used as control strain. The Helicobacter pylori strains were subcultured on chocolate agar plates with cysteine in a microaerophilic atmosphere at 37° C. for 72 hours and kept frozen at −80° C. until assayed.
The MIC rows were incubated under microaerophilic conditions for two hours. Hereafter aliquots of 10 μl were taken from all dilution steps and plated on chocolate agar with cysteine and incubated in a microaerophilic atmosphere for 72 hours at 37° C. The control strain Staphylococcus aureus was incubated both aerobically and microaerophilically at 37° C. for 24 hours. All plates were read by the Karber method.

[4] = Absorption study in rats, oral, serum concentration (Example 20); type: in vivo
Description: The absorption pattern and pharmaco-kinetics of licochalcone A in rats given by oral route were determined compared with pharmacokinetics of licochalcone A in rats given intravenously.
Number of rats: 4 for each group […]
Route: Oral, adminitered once.
Sample: 2 ml of blood was drawn 4 times from each rat.
Serum or plasma was diluted with one part of acetonitrile, left for 15 min at 4° C., and centrifugated for 3 min at 10,000 g. An aliquot of the supernatant was chromatographed at 37° C. by HPLC over Spherisorb ODS-2 (5 μm, 120×4.5 mm, Phase Separation LTD, UK) using acetonitrile aqueous acetic acid, 2%, (1:1) as an eluent, flow rate 1.5 ml/min, and UV detection (370 nm and 254 nm).

human lymphocytes = assay: Lymphocyte Proliferation Assay, 3H-thymidine incorporation (Example 13); conditions: Homo sapiens, Lymphocyte
[5] = 3 days after infection, 0.5 μg/ml
[6] = 3 days after infection, 1 μg/ml
[7] = 6 days after infection, 0.5 μg/ml
[8] = 6 days after infection, 1 μg/ml
[9] = read-out: inhibition of lymphocytes (lower figure)
[10] = read-out: percentage inhibition of lymphocyte proliferation response ±SEM

**Q.** With C=CC(C)(C)c1cc(/C=C/C(=O)c2ccc(O)cc2)c(OC)cc1O [Licochalcone A, licochalcone A] as the compound, how does the “number of amastigotes/100 macrophages” value (L. major amastigotes; 1 μg/ml, 3-day) read?
**A.** Its value is 54.

**Q.** What about the “number of infected macrophages/100 macrophages” value (L. major amastigotes; 1 μg/ml, 3-day) of the same compound?
**A.** The value was 43.

**Q.** And the “number of amastigotes/100 macrophages” value (L. major amastigotes; 1 μg/ml, 6-day)?
**A.** Its value is 45/45/100.

**Q.** And the “number of infected macrophages/100 macrophages” value (L. major amastigotes; 1 μg/ml, 6-day)?
**A.** Its value is 45/45/100.

**Q.** What about the “number of amastigotes/100 macrophages” value (L. major amastigotes; 5 μg/ml, 3-day) of the same compound?
**A.** The value was 18.

**Q.** What about the “number of infected macrophages/100 macrophages” value (L. major amastigotes; 5 μg/ml, 3-day) of the same compound?
**A.** Its value is 7.

**Q.** What about the “number of amastigotes/100 macrophages” value (L. major amastigotes; 5 μg/ml, 6-day) of the same compound?
**A.** Its value is 11.

**Q.** What about the “number of infected macrophages/100 macrophages” value (L. major amastigotes; 5 μg/ml, 6-day) of the same compound?
**A.** Its value is 5.

**Q.** And the “number of amastigotes/100 macrophages” value (L. major amastigotes; 10 μg/ml, 3-day)?
**A.** Its value is 10.

**Q.** What about the “number of infected macrophages/100 macrophages” value (L. major amastigotes; 10 μg/ml, 3-day) of the same compound?
**A.** Its value is 5.

**Q.** What about the “number of amastigotes/100 macrophages” value (L. major amastigotes; 10 μg/ml, 6-day) of the same compound?
**A.** Its value is 6.

**Q.** What about the “number of infected macrophages/100 macrophages” value (L. major amastigotes; 10 μg/ml, 6-day) of the same compound?
**A.** The value was 4.

**Q.** What about the “% of amast.” value [1, 5] of the same compound?
**A.** The value was 91.6%.

**Q.** And the “% of infec. cells” value [1, 5]?
**A.** The value was 14.0%.

**Q.** And the amast. per cell [1, 5]?
**A.** The amast. per cell was 1.7.

**Q.** What about the proma. per cell [1, 5] of the same compound?
**A.** Its proma. per cell is 0.1.

**Q.** What about the total amast. [1, 5] of the same compound?
**A.** Its total amast. is 23.3 ×10^6.

**Q.** What about the total proma. [1, 5] of the same compound?
**A.** Its total proma. is 2.0 ×10^6.

**Q.** What about the “% of amast.” value [1, 6] of the same compound?
**A.** Its value is 88.2%.

**Q.** And the “% of infec. cells” value [1, 6]?
**A.** The value was 10.7%.

**Q.** And the amast. per cell [1, 6]?
**A.** Its amast. per cell is 1.7.

**Q.** What about the proma. per cell [1, 6] of the same compound?
**A.** The proma. per cell was 0.2.

**Q.** What about the total amast. [1, 6] of the same compound?
**A.** The total amast. was 17.7 ×10^6.

**Q.** What about the total proma. [1, 6] of the same compound?
**A.** Its total proma. is 2.0 ×10^6.

**Q.** What about the “% of infec. cells” value ([1]; 3 days after infection, 5 μg/ml) of the same compound?
**A.** Its value is 0%.

**Q.** And the “% of infec. cells” value ([1]; 3 days after infection, 10 μg/ml)?
**A.** Its value is 0%.

**Q.** And the “% of amast.” value [1, 7]?
**A.** The value was 100%.

**Q.** And the “% of infec. cells” value [1, 7]?
**A.** The value was 8.0%.

**Q.** And the amast. per cell [1, 7]?
**A.** Its amast. per cell is 1.7.

**Q.** And the proma. per cell [1, 7]?
**A.** The proma. per cell was 0.

**Q.** What about the total amast. [1, 7] of the same compound?
**A.** Its total amast. is 14 ×10^6.

**Q.** What about the total proma. [1, 7] of the same compound?
**A.** The total proma. was 0 ×10^6.

**Q.** What about the “% of amast.” value [1, 8] of the same compound?
**A.** The value was 100%.

**Q.** And the “% of infec. cells” value [1, 8]?
**A.** Its value is 7.3%.

**Q.** What about the amast. per cell [1, 8] of the same compound?
**A.** Its amast. per cell is 2.2.

**Q.** And the proma. per cell [1, 8]?
**A.** The proma. per cell was 0.

**Q.** And the total amast. [1, 8]?
**A.** The total amast. was 16 ×10^6.

**Q.** And the total proma. [1, 8]?
**A.** Its total proma. is 0 ×10^6.

**Q.** And the “% of infec. cells” value ([1]; 6 days after infection, 5 μg/ml)?
**A.** The value was 0%.

**Q.** What about the “% of infec. cells” value ([1]; 6 days after infection, 10 μg/ml) of the same compound?
**A.** The value was 0%.

**Q.** What about the “toxic effect, trypan blue dye exclusion” value [2] of the same compound?
**A.** The value was “no toxic effect”.

**Q.** What about the inhibition at 0.5 µg/mL (P. falciparum; 0.5 μg/ml) of the same compound?
**A.** The inhibition at 0.5 µg/mL was 39%.

**Q.** And the inhibition at 1 µg/mL (P. falciparum; 1 μg/ml)?
**A.** The inhibition at 1 µg/mL was 69%.

**Q.** What about the inhibition at 5 µg/mL (P. falciparum; 5 μg/ml) of the same compound?
**A.** The inhibition at 5 µg/mL was 98%.

**Q.** And the inhibition at 10 µg/mL (P. falciparum; 10 μg/ml)?
**A.** The inhibition at 10 µg/mL was 98%.

**Q.** What about the MIC ([3]; microaerophilic conditions) of the same compound?
**A.** The MIC was over 500 µg/mL.

**Q.** And the MIC ([3]; normal atmosphere)?
**A.** The MIC was 4 µg/mL (≈ 11.8 µM).

**Q.** And the concentration in serum ([4]; 4 hours after oral administration, 1000 mg per kg as printed)?
**A.** Its concentration in serum is 160 ng/mL.

**Q.** And the concentration at 24 h ([4]; rat, serum, oral, 1000 mg per kg, after 24 hours, detection limit of the assay)?
**A.** The concentration at 24 h was under 50 ng/mL.

**Q.** What about the concentration at 4 h ([4]; rat, serum, po, 1000 mg per kg, 4 hours after oral administration, 1000 mg per kg as printed) of the same compound?
**A.** Its concentration at 4 h is 140 ng/mL.

**Q.** What about the inhibition at 0.5 µg/mL (human lymphocytes; [9]) of the same compound?
**A.** The inhibition at 0.5 µg/mL was 4.7%.

**Q.** What about the inhibition at 1 µg/mL (human lymphocytes; [9]) of the same compound?
**A.** Its inhibition at 1 µg/mL is 7.7%.

**Q.** What about the inhibition at 5 µg/mL (human lymphocytes; [9]) of the same compound?
**A.** Its inhibition at 5 µg/mL is 20.8%.

**Q.** And the inhibition at 10 µg/mL (human lymphocytes; [9])?
**A.** The inhibition at 10 µg/mL was 39.7%.

**Q.** What about the inhibition at 1 µg/mL (human lymphocytes; [10]) of the same compound?
**A.** The inhibition at 1 µg/mL was 4.7 ± 5.6%.

**Q.** And the inhibition at 2 µg/mL (human lymphocytes; [10])?
**A.** The inhibition at 2 µg/mL was 7.8 ± 5.7%.

**Q.** And the inhibition at 5 µg/mL (human lymphocytes; [10])?
**A.** Its inhibition at 5 µg/mL is 20.8 ± 4.8%.

**Q.** And the inhibition at 10 µg/mL (human lymphocytes; [10])?
**A.** Its inhibition at 10 µg/mL is 39.7 ± 5.4%.

**Q.** And the inhibition at 20 µg/mL (human lymphocytes; [10])?
**A.** Its inhibition at 20 µg/mL is 65.3 ± 7%.
